Assay results reported in PMC6100537, “Exploration of the Fluorescent Properties and the Modulated Activities against Sirtuin Fluorogenic Assays of Chromenone-Derived Natural Products” (Molecules : A Journal of Synthetic Chemistry and Natural …, 2018).

Experiments:
[1] = target: T1, SIRT2 (Homo sapiens, UniProt Q8IXJ6); experiment: AMC-peptide fluorogenic deacetylase assay with recombinant SIRT2; Lineweaver-Burk kinetics; format: biochemical
T1 construct: SIRT2 (whole)
T1 sequence (Q8IXJ6 1-389): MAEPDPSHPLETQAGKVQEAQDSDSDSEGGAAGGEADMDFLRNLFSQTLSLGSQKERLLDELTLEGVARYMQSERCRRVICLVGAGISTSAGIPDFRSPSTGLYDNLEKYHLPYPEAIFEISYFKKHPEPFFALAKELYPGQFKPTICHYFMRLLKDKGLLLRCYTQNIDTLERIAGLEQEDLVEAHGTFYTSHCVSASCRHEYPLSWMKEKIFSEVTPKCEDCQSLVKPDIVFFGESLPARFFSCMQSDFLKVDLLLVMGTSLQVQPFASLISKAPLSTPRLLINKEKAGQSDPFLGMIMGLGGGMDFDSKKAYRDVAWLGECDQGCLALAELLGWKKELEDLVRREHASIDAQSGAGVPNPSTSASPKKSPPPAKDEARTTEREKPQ

[2] = target: T2, SIRT1 (Homo sapiens, UniProt Q96EB6); experiment: AMC-peptide fluorogenic deacetylase assay with recombinant SIRT1, activation at […], compound fluorescence background subtracted; format: biochemical
T2 construct: SIRT1 (part)
T2 sequence (Q96EB6 2-747): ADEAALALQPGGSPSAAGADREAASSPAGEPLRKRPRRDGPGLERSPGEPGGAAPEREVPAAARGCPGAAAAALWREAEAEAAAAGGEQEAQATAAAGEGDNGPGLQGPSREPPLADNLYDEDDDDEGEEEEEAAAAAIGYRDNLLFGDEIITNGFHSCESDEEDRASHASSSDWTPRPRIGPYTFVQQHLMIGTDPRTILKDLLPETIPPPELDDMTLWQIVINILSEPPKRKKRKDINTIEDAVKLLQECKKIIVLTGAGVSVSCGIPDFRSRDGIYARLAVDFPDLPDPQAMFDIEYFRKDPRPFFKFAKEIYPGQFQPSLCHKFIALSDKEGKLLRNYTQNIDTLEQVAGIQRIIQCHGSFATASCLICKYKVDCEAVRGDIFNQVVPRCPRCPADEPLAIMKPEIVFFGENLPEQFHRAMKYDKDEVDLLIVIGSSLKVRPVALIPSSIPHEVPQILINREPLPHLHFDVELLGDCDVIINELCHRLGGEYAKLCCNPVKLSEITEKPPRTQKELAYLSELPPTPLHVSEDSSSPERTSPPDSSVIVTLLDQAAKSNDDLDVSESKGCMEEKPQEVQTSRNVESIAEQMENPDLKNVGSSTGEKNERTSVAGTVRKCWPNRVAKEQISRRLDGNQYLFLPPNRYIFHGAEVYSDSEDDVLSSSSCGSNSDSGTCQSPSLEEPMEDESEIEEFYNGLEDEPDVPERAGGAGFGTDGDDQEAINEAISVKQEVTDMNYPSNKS

| IC50 [1] | SMILES | fold induction at 10 µM [2] |
| --- | --- | --- |
| 10 µM | COc1ccc2ccc(=O)oc2c1CC=C(C)C [compound 4, osthole] |  |
|  | Oc1ccc(/C=C/c2cc(O)cc(O)c2)cc1 [compound 1, resveratrol] | 11.6 |
